“And” between values parts separate entries of the source, which are not always exact repeats. Equal entries are not always repeated.
Columns and labels:
CyclinB/cdk1 = target: T1, CyclinB/cdk1 (Homo sapiens, UniProt P06493); test: CyclinB/cdk1 protein kinase assay (histone H1 phosphorylation); format: biochemical; conditions: complex immunopurified from HeLa cells; 15 μM ATP; replicate experiments
T1 construct: Monoclonal antibody against cyclinB (GNS1) is added to the supernatant; endogenous in cells
T1 sequence (P06493 whole entry): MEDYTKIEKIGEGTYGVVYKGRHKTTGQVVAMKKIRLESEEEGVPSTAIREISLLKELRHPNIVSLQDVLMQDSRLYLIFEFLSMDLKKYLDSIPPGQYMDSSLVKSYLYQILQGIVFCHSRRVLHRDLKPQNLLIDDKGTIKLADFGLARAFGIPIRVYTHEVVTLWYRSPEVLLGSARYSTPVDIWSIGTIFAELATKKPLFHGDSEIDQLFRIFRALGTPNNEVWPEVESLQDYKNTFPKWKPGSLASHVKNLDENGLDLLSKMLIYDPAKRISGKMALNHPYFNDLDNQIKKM
T1 sequence (P14635 whole entry partner): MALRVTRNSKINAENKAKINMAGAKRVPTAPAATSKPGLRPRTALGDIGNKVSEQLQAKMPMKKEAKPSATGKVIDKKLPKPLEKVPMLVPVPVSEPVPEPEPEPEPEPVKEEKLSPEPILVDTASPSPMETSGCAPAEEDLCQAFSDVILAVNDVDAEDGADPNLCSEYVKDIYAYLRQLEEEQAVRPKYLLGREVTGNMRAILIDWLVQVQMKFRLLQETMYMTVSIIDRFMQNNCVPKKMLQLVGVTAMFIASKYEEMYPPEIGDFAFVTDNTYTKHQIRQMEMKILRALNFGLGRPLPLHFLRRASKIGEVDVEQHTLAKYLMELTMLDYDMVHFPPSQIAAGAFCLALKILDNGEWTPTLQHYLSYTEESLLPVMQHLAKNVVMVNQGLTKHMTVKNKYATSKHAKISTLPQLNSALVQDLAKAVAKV
Description: HeLa cells are blocked at the G1/S border by culturing in the presence of 2 mM thymidine for 20 h. The cells are then rinsed 3×in phosphate buffered saline and resuspended in regular medium. After 4 h of culture, the mitotic blocker, nocodazole is added to a final concentration of 75 ng/ml. […] The lysate is then clarified by centrifugation at 10,000×g for 10 min. The supernatant is collected and diluted 1:5 with Lysis Buffer. Monoclonal antibody against cyclinB (GNS1) is added to the supernatant to a final concentration of 5 μg/ml and shaken at 4° C. for 2 h. The immune complexes are then collected by the addition of 200 μl of protein agarose beads for 1 h. The beads are washed 4×in lysis buffer and 1×in kinase assay buffer.
Duplicate assays were performed at each concentration.

BT-549 = test: NCI 60-cell line growth inhibition assay; format: cell-based; conditions: Homo sapiens
MCF7 = test: NCI 60-cell line growth inhibition assay; format: cell-based; conditions: Homo sapiens
T-47D = test: NCI 60-cell line growth inhibition assay; format: cell-based; conditions: Homo sapiens, T47D
SNB-19 = test: NCI 60-cell line growth inhibition assay; format: cell-based; conditions: Homo sapiens
HT29 = test: NCI 60-cell line growth inhibition assay; format: cell-based; conditions: Homo sapiens, HT-29; HT29 (Colon)
HL-60(TB) = test: NCI 60-cell line growth inhibition assay; format: cell-based; conditions: Homo sapiens; HL-60(TB) (Leukemia)
RPMI-8226 = test: NCI 60-cell line growth inhibition assay; format: cell-based; conditions: Homo sapiens
NCI-H226 = test: NCI 60-cell line growth inhibition assay; format: cell-based; conditions: Homo sapiens
NCI-H23 = test: NCI 60-cell line growth inhibition assay; format: cell-based; conditions: Homo sapiens
IGROV1 = test: NCI 60-cell line growth inhibition assay; format: cell-based; conditions: Homo sapiens, IGROV-1
OVCAR-4 = test: NCI 60-cell line growth inhibition assay; format: cell-based; conditions: Homo sapiens
OVCAR-8 = test: NCI 60-cell line growth inhibition assay; format: cell-based; conditions: Homo sapiens; OVCAR-8 (Ovarian)
PC-3 = test: NCI 60-cell line growth inhibition assay; format: cell-based; conditions: Homo sapiens
ACHN = test: NCI 60-cell line growth inhibition assay; format: cell-based; conditions: Homo sapiens
CAKI-1 = test: NCI 60-cell line growth inhibition assay; format: cell-based; conditions: Homo sapiens
RXF 393 = test: NCI 60-cell line growth inhibition assay; format: cell-based; conditions: Homo sapiens
SN12C = test: NCI 60-cell line growth inhibition assay; format: cell-based; conditions: Homo sapiens; SN12C (Renal)
[1] = MTD (NCI in vivo evaluation, Table 8); conditions: mouse
CyclinA/cdk2 = CyclinA/cdk2 (Homo sapiens, UniProt P24941); test: CyclinA/cdk2 protein kinase assay (histone H1 phosphorylation); conditions: IC50 CyclinA/cdk2, complex immunopurified from HeLa cells; 15 μM ATP; replicate experiments
CyclinE/cdk2 = CyclinE/cdk2 (Homo sapiens, UniProt P24941); test: CyclinE/cdk2 protein kinase assay (histone H1 phosphorylation); conditions: IC50 CyclinE/cdk2, complex immunopurified from HeLa cells; 15 μM ATP; replicate experiments
HeLa S-3 cells = test: Inhibition of cell growth of HeLa cells (SRB); format: cell-based, human; conditions: 2 days of treatment, replicate experiments
HS 578T = test: NCI 60-cell line growth inhibition assay; format: cell-based; conditions: Homo sapiens
SF-539 = test: NCI 60-cell line growth inhibition assay; format: cell-based; conditions: Homo sapiens
LOX IMVI = test: NCI 60-cell line growth inhibition assay; format: cell-based; conditions: Homo sapiens; LOX IMVI (Melanoma)
MDA-MB-435 = test: NCI 60-cell line growth inhibition assay; format: cell-based; conditions: Homo sapiens

| Structure (SMILES) | IC50 (CyclinB/cdk1) [nM] | GI50 (BT-549; BT-549 (Breast)) [nM] | GI50 (MCF7; MCF7 (Breast)) [nM] | GI50 (T-47D; T-47D (Breast)) [nM] | GI50 (SNB-19; SNB-19 (CNS)) [nM] | GI50 (HT29) [nM] | GI50 (HL-60(TB)) [nM] | GI50 (RPMI-8226; RPMI-8226 (Leukemia)) [nM] | GI50 (NCI-H226; NCI-H226 (Non-Small Cell Lung)) [nM] | GI50 (NCI-H23; NCI-H23 (Non-Small Cell Lung)) [nM] | GI50 (IGROV1; IGROV1 (Ovarian)) [nM] | GI50 (OVCAR-4; OVCAR-4 (Ovarian)) [nM] | GI50 (OVCAR-8) [nM] | GI50 (PC-3; PC-3 (Prostate)) [nM] | GI50 (ACHN; ACHN (Renal)) [nM] | GI50 (RXF 393; RXF 393 (Renal)) [nM] | GI50 (SN12C) [nM] | MTD [1] [mg/kg] | IC50 (CyclinA/cdk2) | GI50 (HS 578T; HS 578T (Breast)) [nM] | also measured |
| --- | --- | --- | --- | --- | --- | --- | --- | --- | --- | --- | --- | --- | --- | --- | --- | --- | --- | --- | --- | --- | --- |
| CC(C)n1cnc2c(NCc3ccc(-c4ccccn4)cc3)nc(N[C@H]3CC[C@H](N)CC3)nc21 [Compound 78] | 800 | 40 | < 10 | 30 | < 10 | < 10 | < 10 | < 10 | 20 | 10 | < 10 | 20 | 20 | < 10 | 320 | < 10 | < 10 | 6.3 | 900 nM and 700 nM | – | GI50 (CAKI-1; CAKI-1 (Renal)): 790 nM; IC50 (CyclinE/cdk2): 600 nM and 300 nM and 200 nM |
| CC[C@H](CO)Nc1nc(NCc2ccc(-c3cccc([N+](=O)[O-])c3)cc2)c2ncn(C(C)C)c2n1 [Compound 48] | – | 10 | 250 | 150 | 20 | < 10 | – | < 10 | – | 70 | 230 | 200 | 100 | 230 | 250 | < 10 | 30 | – | 22000 nM and 6000 nM | 30 | GI50 (HeLa S-3 cells): 600 nM and 500 nM; GI50 (HeLa S-3 cells; Homo sapiens, HeLa S3, 48 h): 300 nM; GI50 (SF-539; SF-539 (CNS)): 380 nM; GI50 (LOX IMVI): 190 nM; IC50 (CyclinE/cdk2): 1000 nM and 5000 nM |
| CC(=O)N[C@H]1CC[C@H](Nc2nc(NCc3ccc(-c4ccccn4)cc3)c3ncn(C(C)C)c3n2)CC1 [Compound 79] | 3000 | < 10 | < 10 | < 10 | < 10 | < 10 | < 10 | < 10 | < 10 | < 10 | < 10 | < 10 | < 10 | < 10 | < 10 | < 10 | < 10 | 6.3 | 500 nM and 1000 nM | < 10 | GI50 (MDA-MB-435; MDA-MB-435 (Breast)): < 10 nM; GI50 (SF-539; SF-539 (CNS)): < 10 nM; GI50 (LOX IMVI): < 10 nM; GI50 (CAKI-1; CAKI-1 (Renal)): < 10 nM |
| CC[C@H](CO)Nc1nc(NCc2ccc(-c3ccccc3)cc2)c2ncn(C(C)C)c2n1 [Compound 73] | – | – | – | – | – | – | – | – | – | – | – | – | – | – | – | – | – | 100 | – | – | GI50 (HeLa S-3 cells; Homo sapiens, HeLa S3, 48 h): 300 nM; GI50 (BT-549; Breast, BT-549): 250 nM; GI50 (HS 578T; Breast, HS 578T): 100 nM; GI50 (MCF7; Breast, MCF7): 160 nM; GI50 (MDA-MB-435; Breast, MDA-MB-435): 250 nM; GI50 (T-47D; Breast, T-47D): 250 nM; GI50 (SF-539; CNS, SF-539): 760 nM; GI50 (SNB-19; CNS, SNB-19): 430 nM; GI50 (RPMI-8226; Leukemia, RPMI-8226): 30 nM; GI50 (NCI-H226; Non-Small Cell Lung, NCI-H226): 220 nM; GI50 (NCI-H23; Non-Small Cell Lung, NCI-H23): 320 nM; GI50 (IGROV1; Ovarian, IGROV1): 320 nM; GI50 (OVCAR-4; Ovarian, OVCAR-4): 320 nM; GI50 (PC-3; Prostate, PC-3): 350 nM; GI50 (ACHN; Renal, ACHN): 320 nM; GI50 (CAKI-1; Renal, CAKI-1): 1660 nM; GI50 (RXF 393; Renal, RXF 393): 90 nM |
| CC(C)n1cnc2c(NCc3ccc(-c4ccsc4)cc3)nc(N[C@H]3CC[C@H](N)CC3)nc21 [Compound 12] | 3000 | 41 | < 5 | 8.8 | 16 | < 5 | < 5 | < 5 | 21 | < 5 | 13 | < 5 | 7.6 | < 5 | 39 | < 5 | < 5 | 3.1 | 2000 nM and 700 nM and 900 nM and 200 nM | < 5 | GI50 (MDA-MB-435; MDA-MB-435 (Breast)): < 5 nM; GI50 (SF-539; SF-539 (CNS)): 22 nM; GI50 (LOX IMVI): < 5 nM |

— patent US20030087906A1, “NITROGEN SUBSTITUTED BIARYL PURINE DERIVATIVES AS POTENT ANTIPROLIFERATIVE AGENTS” (priority 2001, published 2003)
